Source: publication PMC7583830 (Molecules, 2020)
Where “and” joins values, the source holds several entries; their conditions need not be identical. Equal entries are not always repeated. Entries after “also recorded” stand apart in the source; their conditions may differ. Each block holds one compound with its values, some of them ahead of it. Where a SMILES comes first, the peptide text is derived from it. Where no end group is shown, it is not given here. [ ]: non-standard residue; d: D form. The star is where a group is joined. DOTA = O=C(O)CN1CCN(CC(=O)O)CCN(CC(=O)*)CCN(CC(=O)O)CC1; 1Nal = N[C@@H](Cc1cccc2ccccc12)C(=O)O; NMeNle = CCCC[C@H](NC)C(=O)O

Tests used:
A431-CCK2R xenografts = conditions: mouse, in vivo; cited from earlier work
[1] = blood of patients injected with ^111In-labeled DOTA-MG11; conditions: up to 10 min after injection; cited from earlier work
[2] = test system: neprylisin-1 and neprylisin-2; experiment: Incubation in vitro with neprylisin-1 and neprylisin-2; conditions: cited from earlier work
[3] = Stability in fresh human serum (radio-HPLC); format: in vitro ADME; conditions: 24 h incubation, 37 °C
Method: In vitro stability studies for the characterization of the metabolic stability of the radiolabeled peptide analogs in human serum were carried out with [^177Lu]Lu-1, [^177Lu]Lu-M1, [^177Lu]Lu-M2, [^177Lu]Lu-M3 and [^177Lu]Lu-M4 (n = 2). Additional stability studies in rat liver and kidney homogenates were performed for [^177Lu]Lu-1 (n = 2). Tissue homogenates were prepared from dissected organs by homogenization for 1 min at RT (IKA-Werke, Staufen, Germany) in 20 mM HEPES buffer pH 7.3 (30% v/v). The radioligands were incubated in the different media at a concentration of 500 pmol/mL (corresponding to an activity of 6–11 MBq). After incubation at 37 °C at different time points for up to 24 h, a 100 µl sample was taken in duplicates and analyzed by HPLC. Samples obtained from human serum and rat homogenates were treated with ACN at a ratio of 1:1.5 (v/v) to precipitate proteins, centrifuged (14,000 rpm, 2 min, centrifuge 5424, Eppendorf AG, Germany) and diluted with water at a ratio of 1:1 (v/v). A 100 µl aliquot of this solution was injected into the radio HPLC system. The degradation of the radioligand was evaluated based on the radiochemical purity after radiolabeling and the percentage of intact radiopeptide observed during incubation in the different media.

[4] = Distribution coefficient (logD) in octanol/PBS; format: physicochemical; conditions: octanol/PBS pH 7.4; read-out: logD
Method: The mixture was vigorously vortexed at room temperature over a period of 15 min using a small shaker (MS3 Basic, IKA, Staufen, Germany) with speed of 1500 rpm.

[5] = Protein binding in human serum by size exclusion chromatography; format: in vitro ADME; conditions: 24 h incubation
Method: For protein binding assessment, the radiolabeled DOTA-peptides were incubated in fresh human serum at 37 °C (500 pmol/mL, n = 2). After 1, 4 and 24 h of incubation, two samples were taken for each time point and analyzed by Sephadex G-50 size-exclusion chromatography (GE Healthcare Illustra, Little Chalfont, UK). The percentage of protein binding was determined by measuring the column and the eluate with the gamma-counter.

[6] = Metabolic stability in vivo and radiometabolites (radio-HPLC of blood, urine, liver, kidney); parameters: species or system BALB/c mice
Method: Metabolic biodistribution studies were performed in accordance with the ethical standards of the institution and approved by the Austrian Ministry of Science (BMWFW-66.011/0072-V/3b/2019). These studies were carried out in 5- to 7-week-old female BALB/c mice (n = 3) injected with [^177Lu]Lu-1 via a lateral tail vein. To allow monitoring of the metabolites by radio-HPLC, mice were injected with 30 MBq corresponding to 0.8 nmol total peptide. The mice were euthanized by cervical dislocation after different time points of 10 min, 30 min and 1 h p.i. and the urine and a venous blood sample were collected at the time of sacrifice. Liver and kidneys were dissected and homogenized in 20 mM HEPES buffer pH 7.3 at a ratio of 1:1 (v/v) with an Ultra-Turrax T8 homogenizer (IKA-Werke, Staufen, Germany) for 1 min at RT. Before radio-HPLC analysis, the samples (except urine) were treated with ACN at a ratio of 1:1 (v/v) to precipitate proteins, centrifuged at 2000× g for 2 min and diluted with water at a ratio of 1:1 (v/v). For HPLC analysis of the samples, the analytical HPLC system described above with a flow rate of 1 mL/min was used together with the following optimized water/ACN/0.1% TFA gradient to allow a better separation of [^177Lu]Lu-1 and the different radiometabolites: 0–7 min 1–7% ACN, 7–8 min 7–10% ACN, 8–18 min 10–18% ACN, 18–20 min 18–32% ACN, 20–27 min 32% ACN, 27–37 min […], 37–40 min 80% ACN, 40–40.1 min 80–1% ACN, 40.1–45 min 1% ACN. Urine was measured with the low-sensitivity loop of the radiodetector. The remaining samples were analyzed with the high-sensitivity loop due to the lower radioactivity present in blood, liver and kidney homogenate. To quantify the percentage of intact [^177Lu]Lu-1 and [^177Lu]Lu-M1 showing some overlap in the radiochromatogram when using the high-sensitivity loop of the radiodetector, the two radiopeptides were co-injected at different known ratios to enable a more accurate separation and integration of the two peaks (see supporting Figure S4). Mice from the metabolic biodistribution studies were subjected to a further dissection of all remaining tissues (blood, lung, heart, femur, spleen, muscle, intestine, pancreas and stomach). All organs, also including liver and kidneys, were weighed, and their radioactivity was measured in the gamma counter together with a standard and the residual body. To quantify the uptake of radioactivity in liver and kidneys, a part of liver and kidney homogenate was measured in the gamma counter to extrapolate the radioactivity for the whole organ.

[7] = parameters: method as in doi:10.2174/1874471010902040304; conditions: kidney homogenate; labeled with indium-111; cited from earlier work
[8] = parameters: method as in PMID 29896292; conditions: radiolabeled with different radiometals; cited from earlier work
fresh human serum = conditions: 37 °C, up to 24 h
[9] = blood of BALB/c mice injected with [^177Lu]Lu-1; conditions: female BALB/c mice, up to 1 h p.i.
[10] = urine of BALB/c mice injected with [^177Lu]Lu-1; conditions: female BALB/c mice, up to 1 h p.i.
[11] = soluble phase extracted from liver homogenate of BALB/c mice injected with [^177Lu]Lu-1; conditions: female BALB/c mice, up to 1 h p.i.
[12] = soluble phase extracted from kidney homogenate of BALB/c mice injected with [^177Lu]Lu-1; conditions: female BALB/c mice, up to 1 h p.i.
[13] = blood, 30 min p.i., mice injected i.v. with [177Lu]Lu-1
[14] = blood, 60 min p.i., mice injected i.v. with [177Lu]Lu-1
[15] = blood, different time points up to 1 h p.i.

Compound: DOTA-(DGlu)6-Ala-Tyr-Gly-Trp-Met-Asp-Phe-NH2 (AYGWMDF; DOTA-(D-Glu)6 N-terminus, C-amide; radiolabel; printed: Ala-Tyr-Gly-Trp-Met-Asp-Phe-) [PP-F11]
tumor uptake (A431-CCK2R xenografts): ~ 6.7 % IA/g

Compound: {DOTA}-[dE]AYGWMDF-NH2
fragment found [1]: DOTA-DGlu-Ala-Tyr, 10 min after injection
cleaved bond [2]: Asp-Phe; also recorded: Gly-Trp

intact radiopeptide [3]: 29.7 ± 0.8%
intact radiopeptide ([3]; listed as radiolabeled M3): less than 30%
logD [4]: -4.13 ± 0.11
fraction unbound [5]: 0.766
percentage of intact radiopeptide / radiometabolite [6, 13]: 17.0%
percentage of intact radiopeptide / radiometabolite [6, 14]: 20.4%
amount of radiometabolite [6, 15]: < 21%
percentage of intact radiopeptide / radiometabolite ([6]; kidney, 30 min p.i.): 7.9%
percentage of intact radiopeptide / radiometabolite ([6]; liver, 30 min p.i.): 8.5%
percentage of intact radiopeptide / radiometabolite ([6]; liver, 60 min p.i.): 5.6%
percentage of intact radiopeptide / radiometabolite ([6]; urine, 30 min p.i.): 9.5%
percentage of intact radiopeptide / radiometabolite ([6]; urine, 60 min p.i.): 9.8%
Compound: CCCC[C@@H](C(=O)O)N(C)C(=O)[C@H](Cc1c[nH]c2ccccc12)NC(=O)CNC(=O)[C@H](Cc1ccc(O)cc1)NC(=O)[C@@H]1CCCN1C(=O)[C@@H](CCC(=O)O)NC(=O)CN1CCN(CC(=O)O)CCN(CC(=O)O)CCN(CC(=O)O)CC1 [[^177Lu]Lu-M3, metal not drawn] ({DOTA}-[dE]PYGW[NMeNle]-OH; C-terminus assumed)

Compound: DOTA-DGlu-Ala-Tyr-Gly-Trp-Met-Asp-Phe-NH2 ({DOTA}-[dE]AYGWMDF-NH2; also: 111In complex) [DOTA-MG11, truncated MG analog, results quoted for the indium-111 labeled form]
time to complete degradation [7]: ≤ 10 min

intact radiopeptide [3]: 89.1 ± 1.3%
intact radiopeptide ([3]; listed as radiolabeled M1): 89%
logD [4]: -4.07 ± 0.35
fraction unbound [5]: 0.546
percentage of intact radiopeptide / radiometabolite [6, 13]: 9.9%
percentage of intact radiopeptide / radiometabolite [6, 14]: 5.8%
amount of radiometabolite [6, 15]: < 10%
percentage of intact radiopeptide / radiometabolite ([6]; kidney, 30 min p.i.): 2.5%
percentage of intact radiopeptide / radiometabolite ([6]; liver, 30 min p.i.): 4.8%
percentage of intact radiopeptide / radiometabolite ([6]; liver, 60 min p.i.): 4.6%
percentage of intact radiopeptide / radiometabolite ([6]; urine, 30 min p.i.): 1.4%
Compound: CCCC[C@@H](C(=O)N[C@@H](CC(=O)O)C(=O)N[C@@H](Cc1cccc2ccccc12)C(=O)O)N(C)C(=O)[C@H](Cc1c[nH]c2ccccc12)NC(=O)CNC(=O)[C@H](Cc1ccc(O)cc1)NC(=O)[C@@H]1CCCN1C(=O)[C@@H](CCC(=O)O)NC(=O)CN1CCN(CC(=O)O)CCN(CC(=O)O)CCN(CC(=O)O)CC1 [[^177Lu]Lu-M1, metal not drawn] ({DOTA}-[dE]PYGW[NMeNle]D[1Nal]-OH)

Compound: DOTA-DGlu-Ala-Tyr-Gly-Trp-(N-Me)Nle-Asp-1Nal-NH2 [DOTA-MGS5]
cell uptake [8]: > 50%
tumor-to-kidney ratio (A431-CCK2R xenografts): 4–6

not cleaved (fresh human serum): 98.1 ± 0.3% after 24 h incubation
Compound: DOTA-DGlu-Pro-Tyr-Gly-Trp-(N-Me)Nle-Asp

Compound: DOTA-(DGlu)6-Ala-Tyr-Gly-Trp-Met-Asp-Phe-NH2
cleaved bond [2]: Asp-Phe

Compound: DOTA-DGlu-Pro-Tyr-Gly-Trp-(N-Me)Nle-Asp-1Nal-NH2
not cleaved (fresh human serum): 96.2 ± 1.3% intact peptide after 24 h incubation
cleaved bond [9]: 1Nal-NH2, minor and Asp-1Nal, minor and (N-Me)Nle-Asp, minor and Gly-Trp, minor
not cleaved [9]: M8 not found in any of the tissues examined
cleaved bond [10]: 1Nal-NH2, minor and Asp-1Nal, major and (N-Me)Nle-Asp and Gly-Trp, major
not cleaved [10]: M8 not found in any of the tissues examined
cleaved bond [11]: 1Nal-NH2 and Asp-1Nal and (N-Me)Nle-Asp and Trp-(N-Me)Nle, minor and Gly-Trp and Tyr-Gly
not cleaved [11]: M8 not found in any of the tissues examined
cleaved bond [12]: 1Nal-NH2 and Asp-1Nal and (N-Me)Nle-Asp and Gly-Trp and Tyr-Gly and Pro-Tyr, minor, 60 min
not cleaved [12]: M8 not found in any of the tissues examined

intact radiopeptide [3]: 98.1 ± 0.3%
logD [4]: -4.18 ± 0.17
fraction unbound [5]: 0.519
percentage of intact radiopeptide / radiometabolite [6, 13]: 3.8%
percentage of intact radiopeptide / radiometabolite [6, 14]: 7.3%
amount of radiometabolite [6, 15]: < 8%
percentage of intact radiopeptide / radiometabolite ([6]; kidney, 30 min p.i.): 20.7%
percentage of intact radiopeptide / radiometabolite ([6]; kidney, 60 min p.i.): 12% and 12.3%
percentage of intact radiopeptide / radiometabolite ([6]; liver, 30 min p.i.): 7.2%
percentage of intact radiopeptide / radiometabolite ([6]; liver, 60 min p.i.): 6.9%
percentage of intact radiopeptide / radiometabolite ([6]; urine, 30 min p.i.): 40.5%
percentage of intact radiopeptide / radiometabolite ([6]; urine, 60 min p.i.): 40.3%
amount of radiometabolite ([6]; urine, time point not stated): ~ 40%
Compound: CCCC[C@@H](C(=O)N[C@@H](CC(=O)O)C(=O)O)N(C)C(=O)[C@H](Cc1c[nH]c2ccccc12)NC(=O)CNC(=O)[C@H](Cc1ccc(O)cc1)NC(=O)[C@@H]1CCCN1C(=O)[C@@H](CCC(=O)O)NC(=O)CN1CCN(CC(=O)O)CCN(CC(=O)O)CCN(CC(=O)O)CC1 [[^177Lu]Lu-M2, metal not drawn] ({DOTA}-[dE]PYGW[NMeNle]D-OH; C-terminus assumed)

not cleaved (fresh human serum): 98.4 ± 0.01% after 24 h incubation
Compound: {DOTA}-[dE]PYGW

Compound: DOTA-(DGlu)6-Ala-Tyr-Gly-Trp-Nle-Asp-Phe-NH2
not cleaved [2]: seemed to be resistant against neprylisins

Compound: DOTA-(DGlu)6-Ala-Tyr-Gly-Trp-Nle-Asp-Phe-NH2 [PP-F11N]
tumor uptake (A431-CCK2R xenografts): 6.9 % IA/g
